Source: US20050239656A1, “Pyridine compounds or salts thereof and herbicides containing the same” (priority 2002, published 2005)

Experiments:
soybean = assay: Test Example 2: soil surface treatment, upland pot test; type: in vivo, Glycine max Merr.; details: observed 20th to 28th day
Summary of the method: (§1)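 Pots (1/170,000 ha) filled with upland field soil were seeded, then treated on the following day by spraying the soil surface with diluted formulation (1,500 L/ha) at a fixed a.i. dose. Control was rated visually on a 0–100% scale at 20–28 days.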

green foxtail = assay: as above; type: in vivo, Setaria viridis L.; details: observed 20th to 28th day
Summary of the method: as §1

wheat = assay: as above; type: in vivo, Triticum spp.; details: observed 20th to 28th day
From the text: Upland field soil was put into a 1/170,000 ha pot, and seed of various plants (barnyardgrass, crabgrass, green foxtail, redroot pigweed, prickly sida, velvetleaf, rice, wheat, corn, soybean) were sown. On the 1st day after the sowing, a wettable powder or emulsifiable concentrate having the compound of the present invention formulated in accordance with a usual formulation method, was weighed so that the active ingredient would be a predetermined amount, and diluted with water in an amount of 1,500 L/ha. The herbicide thus adjusted was applied by a small size sprayer for soil surface treatment. On the 20th to 28th days after the application of the herbicide, the growth of the respective plants was visually observed, and the herbicidal effects were evaluated by the growth controlling degrees (%) ranging from 0 (equivalent to the non-treated plot) to 100 (complete kill), whereby the results shown in Table 4, were obtained.

barnyardgrass [1] = assay: as above; type: in vivo, Echinochloa crus-galli L.; details: observed 20th to 28th day
Summary of the method: as §1

barnyardgrass [2] = assay: Test Example 3: paddy pot test, application under submerged conditions; type: in vivo, Echinochloa crus-galli L.; details: submerged application at 0.5 leaf stage, visually observed 14 days after application, 0 = non-treated, 100 = complete kill
Summary of the method: (§2)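 Seeds were sown in flooded paddy soil (0.5–1 cm water), wapato tubers were planted 1–2 days later, and water was then held at 3–4 cm. Diluted wettable powder or emulsifiable concentrate was pipetted into the water at the 0.5 leaf or primary leaf stage. Growth control was visually scored at 14 days (0–100%).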

velvetleaf = assay: Test Example 2: soil surface treatment, upland pot test; type: in vivo, Abutilon theophrasti MEDIC.; details: observed 20th to 28th day
Summary of the method: as §1

redroot pigweed = assay: as above; type: in vivo, Amaranthus retroflexus L.; details: observed 20th to 28th day
Summary of the method: as §1

rice = assay: as above; type: in vivo, Oryza sativa L.; details: observed 20th to 28th day
Summary of the method: as §1

rice (var. Nihonbare) = assay: Test Example 3: paddy pot test, transplanted rice; type: in vivo, Oryza sativa L.; details: applied 4th day after transplantation, visually observed 21st day after application, 0 = non-treated, 100 = complete kill
Summary of the method: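 Rice (2-leaf stage) was transplanted 3 cm deep into puddled, leveled paddy soil under 3–4 cm flooding. On day 4 after transplanting, diluted wettable powder or emulsifiable concentrate was pipetted onto the water at a predetermined active-ingredient dose. Growth control (0 = untreated, 100 = complete kill) was scored visually 21 days later.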

prickly sida = assay: Test Example 2: soil surface treatment, upland pot test; type: in vivo, Sida spinosa L.; details: observed 20th to 28th day
Summary of the method: as §1

japanese ribbon wapato = assay: Test Example 3: paddy pot test, application under submerged conditions; type: in vivo, Sagittaria pygniaea; details: active ingredient 500 g/ha; submerged application at primary leaf stage; visually observed 14 days after application; 0 = non-treated, 100 = complete kill
Summary of the method: as §2

crabgrass = assay: Test Example 2: soil surface treatment, upland pot test; type: in vivo, Digitaria sanguinalis L.; details: observed 20th to 28th day
Summary of the method: as §1

japanese bulrush = assay: Test Example 3: paddy pot test, application under submerged conditions; type: in vivo, Scirpus juncoides; details: submerged application at 0.5 leaf stage, visually observed 14 days after application, 0 = non-treated, 100 = complete kill
Summary of the method: as §2

corn = assay: Test Example 2: soil surface treatment, upland pot test; type: in vivo, Zea mays L.; details: observed 20th to 28th day
Summary of the method: as §1

[3] = active ingredient 1000 g/ha, 0 = non-treated, 100 = complete kill

| Structure (SMILES) | Growth controlling degree (%) Soyabean (soybean; active ingredient 1000 g/ha) [%] | Growth controlling degree (%) Green foxtail (green foxtail; active ingredient 1000 g/ha) [%] | Growth controlling degree (%) wheat (wheat; active ingredient 1000 g/ha) [%] | Growth controlling degree (%) Barnyardgrass (barnyardgrass [1]; [3]) [%] | Growth controlling degree (%) Rice (rice (var. Nihonbare); active ingredient 500 g/ha) [%] | Growth controlling degree (%) Japanese ribbon wapato (japanese ribbon wapato) [%] | Growth controlling degree (%) Japanese bulrush (japanese bulrush; active ingredient 500 g/ha) [%] | Growth controlling degree (%) Soyabean (soybean; active ingredient 250 g/ha) [%] | Growth controlling degree (%) Green foxtail (green foxtail; active ingredient 250 g/ha) [%] | Growth controlling degree (%) wheat (wheat; active ingredient 250 g/ha) [%] | Growth controlling degree (%) Barnyardgrass (barnyardgrass [1]; active ingredient 250 g/ha) [%] | Growth controlling degree (%) Barnyardgrass (barnyardgrass [2]; active ingredient 250 g/ha) [%] | Growth controlling degree (%) Velvetleaf (velvetleaf; active ingredient 250 g/ha) [%] | Growth controlling degree (%) Redroot pigweed (redroot pigweed; active ingredient 250 g/ha) [%] | Growth controlling degree (%) Rice (rice; active ingredient 250 g/ha) [%] | Growth controlling degree (%) Rice (rice (var. Nihonbare); active ingredient 250 g/ha) [%] | Growth controlling degree (%) Prickly sida (prickly sida; active ingredient 250 g/ha) [%] | Growth controlling degree (%) Crabgrass (crabgrass; active ingredient 250 g/ha) [%] | Growth controlling degree (%) Japanese bulrush (japanese bulrush; active ingredient 250 g/ha) [%] | Growth controlling degree (%) Corn (corn; active ingredient 250 g/ha) [%] | also measured |
| --- | --- | --- | --- | --- | --- | --- | --- | --- | --- | --- | --- | --- | --- | --- | --- | --- | --- | --- | --- | --- | --- |
| CCC(=O)NC(c1cnccc1C(F)(F)F)c1cccc2ccccc12 (centres unmarked) [Compound I-42] | 0 | 90 | 30 | 70 | 30 | 10 | 95 | – | – | – | – | – | – | – | – | – | – | – | – | – | Growth controlling degree (%) Barnyardgrass (barnyardgrass [2]; active ingredient 500 g/ha): 70%; Growth controlling degree (%) Velvetleaf (velvetleaf; active ingredient 1000 g/ha): 0%; Growth controlling degree (%) Redroot pigweed (redroot pigweed; active ingredient 1000 g/ha): 0%; Growth controlling degree (%) Rice (rice; active ingredient 1000 g/ha): 0%; Growth controlling degree (%) Prickly sida (prickly sida; active ingredient 1000 g/ha): 0%; Growth controlling degree (%) Crabgrass (crabgrass; active ingredient 1000 g/ha): 90%; Growth controlling degree (%) Corn (corn; active ingredient 1000 g/ha): 10% |
| COC(=O)NC(c1cnccc1C(F)(F)F)c1cccc2ccccc12 (centres unmarked) [Compound I-45] | 0 | 60 | 30 | 0 | 30 | 60 | 90 | – | – | – | – | – | – | – | – | – | – | – | – | – | Growth controlling degree (%) Barnyardgrass (barnyardgrass [2]; active ingredient 500 g/ha): 85%; Growth controlling degree (%) Velvetleaf (velvetleaf; active ingredient 1000 g/ha): 40%; Growth controlling degree (%) Redroot pigweed (redroot pigweed; active ingredient 1000 g/ha): 40%; Growth controlling degree (%) Rice (rice; active ingredient 1000 g/ha): 50%; Growth controlling degree (%) Prickly sida (prickly sida; active ingredient 1000 g/ha): 40%; Growth controlling degree (%) Crabgrass (crabgrass; active ingredient 1000 g/ha): 90%; Growth controlling degree (%) Corn (corn; active ingredient 1000 g/ha): 20% |
| CC(C)C(c1cnccc1Cl)N(C)C(=O)Cc1ccccc1 (centres unmarked) [I-22] | – | – | – | – | 0 | 95 | 95 | – | – | – | – | – | – | – | – | – | – | – | – | – | Growth controlling degree (%) Soyabean (soybean; active ingredient 500 g/ha): 10%; Growth controlling degree (%) Green foxtail (green foxtail; active ingredient 500 g/ha): 90%; Growth controlling degree (%) wheat (wheat; active ingredient 500 g/ha): 30%; Growth controlling degree (%) Barnyardgrass (barnyardgrass [1]; active ingredient 500 g/ha): 90%; Growth controlling degree (%) Velvetleaf (velvetleaf; active ingredient 500 g/ha): 70%; Growth controlling degree (%) Redroot pigweed (redroot pigweed; active ingredient 500 g/ha): 90%; Growth controlling degree (%) Rice (rice; active ingredient 500 g/ha): 10%; Growth controlling degree (%) Prickly sida (prickly sida; active ingredient 500 g/ha): 70%; Growth controlling degree (%) Crabgrass (crabgrass; active ingredient 500 g/ha): 95%; Growth controlling degree (%) Corn (corn; active ingredient 500 g/ha): 20% |
| CCCOC(=O)N(C)C(c1cnccc1C(F)(F)F)C(C)C (centres unmarked) [I-203] | – | – | – | – | – | – | – | 30 | 98 | 30 | 100 | 100 | 30 | 80 | 60 | 10 | 60 | 100 | 95 | 40 | – |
| CC(=Cc1ccccc1)C(=O)N(C)C(c1cnccc1C(F)(F)F)C(C)C (centres unmarked) [I-206] | – | – | – | – | – | – | – | 20 | 100 | 30 | 100 | 100 | 40 | 70 | 40 | 10 | 50 | 100 | 98 | 30 | – |
| CC(=O)N(C)C(c1cnccc1C(F)(F)F)C(C)C (centres unmarked) [I-208] | – | – | – | – | – | – | – | 60 | 100 | 80 | 100 | 98 | 50 | 90 | 100 | 70 | 80 | 100 | 98 | 70 | – |
